Laboratory results taken from patent US20160068902A1, “SEQUENCING NUCLEIC ACIDS BY ENZYME ACTIVATION” (CAERUS MOLECULAR DIAGNOSTICS, priority 2013, published 2016).

Test system: maltose binding protein/lactamase enzyme (switch enzyme)
Assay: Lactamase switch enzyme activity monitored with chromogenic substrate nitrocefin
Assay type: biochemical
Settings: for activation of the switch protein after dephosphorylation: dephosphorylated with shrimp alkaline phosphatase; for activation of the switch protein after dephosphorylation / activation of the switch protein: FIG. 4E; for activation of the switch protein: without dephosphorylation
From the text: A maltose with the 1′ hydroxyl attached to the terminal phosphate of a dNTP should not bind effectively to the switch and so should not activate the maltose binding protein/lactamase enzyme^12. The conjugated maltose/dNTP can be used to detect incorporation of dNTP during a cycle of sequencing by synthesis: the enzyme is only activated after incorporation of a dNTP released phospho-maltose which is then be dephosphorylated to yield the maltose activator. […] Maltose monohydrate (1.44 g) was dissolved in 1 ml of water titrated to pH 12.5 by addition of NaOH and heated to 80° C. Trisodium trimetaphosphate (0.31 g) was added and the mixture reacted at room temperature for 25 hours. The maltose-triphosphate product was purified by anion exchange chromatography on a Dowex 1-X2 resin and eluted with 300 mM KCl.
The switch protein was expressed and purified as previously described^21 and enzyme activity was monitored using the chromogenic substrate nitrocefin. […] Addition of maltose increased the enzyme activity more than 210-fold.

activation of the switch protein	increase of enzyme activity on addition of maltose (10 nM switch enzyme, nitrocefin hydrolysis, FIG. 4A)	Lactamase switch hydrolyses nitrocefin faster after maltose addition (FIG. 4(A) legend) [times]	Compound	activation of the switch protein after dephosphorylation	activation of the switch protein after dephosphorylation (listed as Maltose triphosphate)
no appreciable activation			maltose triphosphate	activation levels similar to that of maltose	significant activation of the lactamase switch only upon dephosphorylation
activates the protein	more than 210 fold	210	OC[C@H]1O[C@H](O[C@H]2[C@H](O)[C@@H](O)C(O)O[C@@H]2CO)[C@H](O)[C@@H](O)[C@@H]1O (mixture of isomers) [maltose]		
